Columns and labels:
Format in all cases: in vivo, mouse
[1] = system: colon cancer-derived Colon26 cells; assay: Example 5: Balb/c mice inoculated with Colon26 cells, oxaliplatin or 5-FU combination; settings: antibody 50 μg iv day 5; oxaliplatin 5 mg/kg or 5-FU 30 mg/kg iv 1 hour later; oxaliplatin and antibody single 4, 7, 10, 12, 14, 17 days; 5-FU single only 7 days; combinations from 10 days; Mann-Whitney U
Protocol: The back of each Balb/c mouse (5 weeks old, female) was intracutaneously inoculated with 3.5×10^5 colon cancer-derived Colon26 cells (50 μL).
To an anti-mouse CCR8 antibody single administration group, 50 μg (200 μL) of an anti-mouse CCR8 antibody (clone SA214G2, BioLegend, Inc.) was intravenously administered 5 days after tumor inoculation, and saline was intravenously administered at a volume of 10 ml/kg body weight 1 hour after the administration of the anti-mouse CCR8 antibody (N=10).
To an oxaliplatin single administration group, 50 μg (200 μL) of an isotype control antibody was intravenously administered 5 days after tumor inoculation, and oxaliplatin (trade name: ELPLAT, Yakult Honsha Company, Limited) at 5 mg/kg body weight was intravenously administered at a volume of 10 mL/kg body weight 1 hour after the administration of the isotype control antibody (N=10). […]
Tumor volumes were measured every 2 to 3 days from 4 days after tumor inoculation (a day before antibody administration). The tumor volume (mm^3) was measured in long diameter (mm)×short diameter (mm)×short diameter (mm)/2, and a significant difference test based on a Mann-Whitney U method (significance level: P<0.05) was conducted.

[2] = system: colon cancer-derived CT26 cells; assay: Example 12: hCCR8-KI (KI/KI) mice inoculated with CT26 cells, 5-FU combination; settings: antibody 0.1 mg/kg iv day 5; 5-FU 30 mg/kg iv 3 hours later; single groups 8, 12, 15 days, combined from 8 days; Mann-Whitney U
Protocol: The back of each hCCR8-KI (KI/KI) mouse (14 weeks old, female) prepared in Test Example 10 was intracutaneously inoculated with 3.5×10^5 colon cancer-derived CT26 cells (50 μL).
To an anti-human CCR8 antibody single administration group, an anti-human CCR8 antibody (humanized 10A11 antibody (light chain variable region: IGKV4-1 N53Q+G29R (SEQ ID NO: 59)/heavy chain variable region: IGHV3-15 T94R (SEQ ID NO: 41)) was intravenously administered at 0.1 mg/kg body weight 5 days after tumor inoculation, and saline was intravenously administered 3 hours after the administration of the anti-human CCR8 antibody (N=8). To a 5-FU single administration group, a saline was intravenously administered 5 days after tumor inoculation, and 5-FU (trade name: 5-FU INJECTION 250 KYOWA, Kyowa Hakko Kirin Co. Ltd) was intravenously administered at 30 mg/kg body weight 3 hours after the administration of the saline (N=8). […] Tumor volumes were measured every 3 to 4 days from […] after tumor inoculation (a day before antibody administration). The tumor volume (mm^3) was measured in long diameter (mm)×short diameter (mm)×short diameter (mm)/2, and a significant difference test based on a Mann-Whitney U method (significance level: P<0.05) was conducted.

[3] = system: colon cancer-derived Colon26 cells; assay: Example 11: hCCR8-KI (KI/KI) mice inoculated with Colon26 cells, oxaliplatin combination (Part 2); settings: as Example 6; 2-7B part: oxaliplatin 10, 14, 17 days, antibody 14, 17 days; 19D7 part: oxaliplatin 10, 14 days, antibody 14 days; combinations from 10 days; Student's T one-sided
Protocol: To an oxaliplatin single administration group, saline was intravenously administered 5 days after tumor inoculation, and oxaliplatin (trade name: ELPLAT, Yakult Honsha Company, Limited) at 5 mg/kg body weight was intravenously administered 3 hours after the administration of the saline (N=10). To an anti-mouse CCR8 antibody and oxaliplatin combined administration group, an anti-human CCR8 antibody at 15 mg/kg body weight was intravenously administered 5 days after tumor inoculation, and oxaliplatin at 5 mg/kg body weight was intravenously administered 3 hours after the administration of the anti-mouse CCR8 antibody (N=10). To a control group, saline was intravenously administered 5 days after tumor inoculation, and saline was intravenously administered 3 hours after the administration of the saline (N=10). […] Tumor volumes were measured every 1 to 3 days from 4 days after tumor inoculation (a day before antibody administration). The tumor volume (mm^3) was measured in long diameter (mm)×short diameter (mm)×short diameter (mm)/2, and a significant difference test based on a Mann-Whitney U method (significance level: P<0.05) was conducted. […]

[4] = system: colon cancer-derived Colon26 cells; assay: Example 6: hCCR8-KI (KI/KI) mice inoculated with Colon26 cells, oxaliplatin combination; settings: antibody 15 mg/kg iv day 5; oxaliplatin 5 mg/kg iv 3 hours later; single groups 4, 7, 10, 12, 14, 17, 18 days, combined from 7 days; Mann-Whitney U
Protocol: The back of each hCCR8-KI (KI/KI) mouse (12 weeks old, female) prepared in Test Example 10 was intracutaneously inoculated with 3.5×10^5 colon cancer-derived Colon26 cells (50 uL).
To an anti-human CCR8 antibody single administration group, an anti-human CCR8 antibody (humanized 10A11 antibody (light chain variable region: IGKV4-1 N53Q+G29R (SEQ ID NO: 59)/heavy chain variable region: IGHV3-15 T94R (SEQ ID NO: 41))) at 15 mg/kg body weight was intravenously administered 5 days after tumor inoculation, and saline was intravenously administered 3 hours after the administration of the anti-human CCR8 antibody (N=10). To an oxaliplatin single administration group, saline was intravenously administered 5 days after tumor inoculation, and oxaliplatin (trade name: ELPLAT, Yakult Honsha Company, Limited) at 5 mg/kg body weight was intravenously administered 3 hours after the administration of the saline (N=10). […] Tumor volumes were measured every 1 to 3 days from 4 days after tumor inoculation (a day before antibody administration). The tumor volume (mm^3) was measured in long diameter (mm)×short diameter (mm)×short diameter (mm)/2, and a significant difference test based on a Mann-Whitney U method (significance level: P<0.05) was conducted.

Structure (SMILES)	tumor volume as compared to the control group [1]	tumor volume as compared to the control group [2]	tumor volume as compared to the control group [3]	tumor volume as compared to the control group [4]
O=c1[nH]cc(F)c(=O)[nH]1 [5-FU, fluorouracil, reference compound]	significant decrease	no significant decrease		
O=C1[O][Pt]2([NH][C@@H]3CCCC[C@H]3[NH]2)[O]C1=O [oxaliplatin, reference compound]	no significant decrease		no significant decrease	no significant decrease

Source: patent US20230256092A1, “COMBINED USE OF ANTI-CCR8 ANTIBODY AND CHEMOTHERAPEUTIC AGENT” (Shionogi & Co., Ltd., priority 2020, published 2023)
